# Measured values as given in US20070049564A1 (Wyeth, priority 2005, published 2007).
# Where two headings read alike, the source gives them in different places.
# How the values were obtained:
# [1] = system: E. coli GC 2232; assay: MIC, broth microdilution
# [2] = system: S. aureus GC 6335; assay: MIC, broth microdilution
# [3] = system: E. coli GC 2231; assay: MIC, broth microdilution
# [4] = system: E. faecium GC 4556; assay: MIC, broth microdilution
# [5] = system: S. aureus GC 1079; assay: MIC, broth microdilution
# [6] = system: E. coli GC 4559; assay: MIC, broth microdilution
# [7] = system: Salmonella spp. GC 235; assay: MIC, broth microdilution
# Experimental: (§1) Antimicrobial susceptibility testing. The in vitro activities of the antibiotics are determined by the broth microdilution method as recommended by the National Committee for Clinical Laboratory Standards (NCCLS) (1). Mueller-Hinton II broth (MHBII)(BBL Cockeysville, Md.) is the medium employed in the testing procedures. Microtiter plates containing serial dilutions of each antimicrobial agent are inoculated with each organism to yield the appropriate density (10^5 CFU/ml) in a 100 μl final volume. The plates are incubated for 18-22 hours at 35° C. in ambient air.
# Representative compounds were first incubated in mouse serum for an hour prior to the in vitro testing against a panel of selected gram-positive and gram-negative bacteria strains. All compounds were also pre-incubated in water for an hour prior to testing as control.
# [8] = system: E. faecalis GC 2267; assay: MIC, broth microdilution
# [9] = system: Salmonella spp. GC 566; assay: MIC, broth microdilution
# Experimental: as §1
# (§2) Presented in Tables I-XIII are representative compounds of Formula I which were evaluated against a panel of 40 selected gram-positive and gram-negative bacteria strains by pre-incubation in water, mouse serum or human serum. Representative compounds were first incubated in mouse serum for an hour prior to the in vitro testing against a panel of selected gram-positive and gram-negative bacteria strains. All compounds were also pre-incubated in water for an hour prior to testing as control. Representative compounds of Formula I were incubated in human serum prior to MIC determination.
# [10] = system: E. coli GC 2272; assay: MIC, broth microdilution
# [11] = system: E. coli GC 2235; assay: MIC, broth microdilution
# [12] = system: S. cholerasius GC 1355; assay: MIC, broth microdilution
# [13] = system: E. coli GC 2270; assay: MIC, broth microdilution
# [14] = system: S. typhimurium GC 2172; assay: MIC, broth microdilution
# [15] = system: c. albicans GC 3066; assay: MIC, broth microdilution
# [16] = system: E. faecalis GC 4555; assay: MIC, broth microdilution
# [17] = system: E. faecalis GC 2265; assay: MIC, broth microdilution
# [18] = system: S. aureus GC 2216; assay: MIC, broth microdilution
# [19] = system: S. pneumoniae+ GC 4465; assay: MIC, broth microdilution
# [20] = system: E. faecium GC 2243; assay: MIC, broth microdilution
# [21] = system: P. aeruginosa GC 2214; assay: MIC, broth microdilution
# [22] = system: S. aureus GC 4536; assay: MIC, broth microdilution
# [23] = system: S. aureus GC 6469; assay: MIC, broth microdilution
# [24] = system: S. agalactiae GC 4564; assay: MIC, broth microdilution
# [25] = system: E. faecalis GC 2242; assay: MIC, broth microdilution
# [26] = system: S. aureus GC 6466; assay: MIC, broth microdilution
# [27] = system: E. coli GC 4560; assay: MIC, broth microdilution
# [28] = system: S. pneumoniae* GC 4465; assay: MIC, broth microdilution
# [29] = system: E. coli GC 2233; assay: MIC, broth microdilution
# [30] = system: E. coli GC 2271; assay: MIC, broth microdilution
# [31] = system: Staph. aureus Smith; assay: In vivo activity (oral, iv; ED50) against Staph. aureus Smith in mice
# Experimental: Representative examples of compounds of Formula I were tested for the oral efficacy using S. aureus Smith in mice.
# [32] = system: S. aureus GC 1131; assay: MIC, broth microdilution
# [33] = system: E. coli GC 2236; assay: MIC, broth microdilution
# [34] = system: S. pyogenes GC 4563; assay: MIC, broth microdilution
# Experimental: Antimicrobial susceptibility testing. The in vitro activities of the antibiotics are determined by the broth microdilution method as recommended by the National Committee for Clinical Laboratory Standards (NCCLS) (1). Mueller-Hinton II broth (MHBII)(BBL Cockeysville, Md.) is the medium employed in the testing procedures. Microtiter plates containing serial dilutions of each antimicrobial agent are inoculated with each organism to yield the appropriate density (10^5 CFU/ml) in a 100 μl final volume. The plates are incubated for 18-22 hours at 35° C. in ambient air. […] Standard Pharmacological Test Procedures
# as §2
# [35] = system: E. coli GC 3226; assay: MIC, broth microdilution
# [36] = system: E. coli GC 6465; assay: MIC, broth microdilution
# [37] = system: S. aureus GC 6467; assay: MIC, broth microdilution
# [38] = system: E. coli GC 2203; assay: MIC, broth microdilution
# [39] = system: S. epidermidis GC 4935; assay: MIC, broth microdilution
# Experimental: as §1
# Representative compounds were first incubated in mouse serum for an hour prior to the in vitro testing against a panel of selected gram-positive and gram-negative bacteria strains. All compounds were also pre-incubated in water for an hour prior to testing as control. Representative compounds of Formula I were incubated in human serum prior to MIC determination.
# [40] = system: E. coli GC 1073; assay: MIC, broth microdilution
# [41] = system: E. coli GC 2234; assay: MIC, broth microdilution
# [42] = system: E. coli; assay: Range of MIC for E. coli strains; settings: for MIC: Escherichia coli
# [43] = system: Staph.; assay: Range of MIC for Staph. strains, including MRSA; settings: for MIC: Staphylococcus aureus, MRSA
# [44] = system: Staph. aureus Smith; assay: In vitro activity (MIC) against Staph. aureus Smith; type: cell-based; settings: Staphylococcus aureus; Table 8
smiles,measurement,setting,value
"CCCN(CC(=O)Nc1cc(N(C)C)c2c(c1O)C(=O)C1=C(O)[C@@]3(O)C(=O)C(C(N)=O)=C(O)[C@@H](N(C)C)C3CC1C2)C(=O)OCc1oc(=O)oc1C (stereo partly drawn) [Example 108, (5-methyl-2-oxo-1,3-dioxol-4-yl)methyl 2-{[(7S,10aR)-9-(aminocarbonyl)-4,7-bis(dimethylamino)-1,8,10a,11-tetrahydroxy-10,12-dioxo-5,5a,6,6a,7,10,10a,12-octahydrotetracen-2-yl]amino}-2-oxoethyl(propyl)carbamate]",MIC,[1]; pre-incubation in mouse serum,1 UG/ML
same,MIC,[1]; pre-incubation in water,2 UG/ML
same,MIC,[2]; pre-incubation in mouse serum,1 UG/ML
same,MIC,[2]; pre-incubation in water,2 UG/ML
same,MIC,[3]; pre-incubation in mouse serum,2 UG/ML
same,MIC,[3]; pre-incubation in water,4 UG/ML
same,MIC,[4]; pre-incubation in mouse serum,0.50 UG/ML
same,MIC,[4]; pre-incubation in water,1 UG/ML
same,MIC,[5]; pre-incubation in mouse serum,2 UG/ML
same,MIC,[5]; pre-incubation in water,4 UG/ML
same,MIC,[6]; pre-incubation in mouse serum,0.50 UG/ML
same,MIC,[6]; pre-incubation in water,1 UG/ML
same,MIC,[7]; pre-incubation in mouse serum,1 UG/ML
same,MIC,[7]; pre-incubation in water,4 UG/ML
same,MIC,[8]; pre-incubation in mouse serum,1 UG/ML
same,MIC,[8]; pre-incubation in water,2 UG/ML
same,MIC,[9]; pre-incubation in mouse serum,1 UG/ML
same,MIC,[9]; pre-incubation in water,8 UG/ML
same,MIC,[10]; pre-incubation in mouse serum,0.25 UG/ML
same,MIC,[10]; pre-incubation in water,0.50 UG/ML
same,MIC,[11]; pre-incubation in mouse serum,0.50 UG/ML
same,MIC,[11]; pre-incubation in water,1 UG/ML
same,MIC,[12]; pre-incubation in mouse serum,32 UG/ML
same,MIC,[12]; pre-incubation in water,64 UG/ML
same,MIC,[13]; pre-incubation in mouse serum,0.50 UG/ML
same,MIC,[13]; pre-incubation in water,1 UG/ML
same,MIC,[14]; pre-incubation in mouse serum,4 UG/ML
same,MIC,[14]; pre-incubation in water,32 UG/ML
same,MIC,[15]; pre-incubation in mouse serum,>64 UG/ML
same,MIC,[15]; pre-incubation in water,>64 UG/ML
same,MIC,[16]; pre-incubation in mouse serum,0.50 UG/ML
same,MIC,[16]; pre-incubation in water,0.50 UG/ML
same,MIC,[17]; pre-incubation in mouse serum,1 UG/ML
same,MIC,[17]; pre-incubation in water,2 UG/ML
same,MIC,[18]; pre-incubation in mouse serum,0.50 UG/ML
same,MIC,[18]; pre-incubation in water,1 UG/ML
same,MIC,[19]; pre-incubation in mouse serum,1 UG/ML
same,MIC,[19]; pre-incubation in water,2 UG/ML
same,MIC,[20]; pre-incubation in mouse serum,0.50 UG/ML
same,MIC,[20]; pre-incubation in water,0.50 UG/ML
same,MIC,[21]; pre-incubation in mouse serum,16 UG/ML
same,MIC,[21]; pre-incubation in water,32 UG/ML
same,MIC,[22]; pre-incubation in mouse serum,0.50 UG/ML
same,MIC,[22]; pre-incubation in water,1 UG/ML
same,MIC,[23]; pre-incubation in mouse serum,0.25 UG/ML
same,MIC,[23]; pre-incubation in water,1 UG/ML
same,MIC,[24]; pre-incubation in mouse serum,0.12 UG/ML
same,MIC,[24]; pre-incubation in water,0.12 UG/ML
same,MIC,[25]; pre-incubation in mouse serum,0.50 UG/ML
same,MIC,[25]; pre-incubation in water,1 UG/ML
same,MIC,[26]; pre-incubation in mouse serum,0.50 UG/ML
same,MIC,[26]; pre-incubation in water,1 UG/ML
same,MIC,[27]; pre-incubation in mouse serum,0.12 UG/ML
same,MIC,[27]; pre-incubation in water,0.25 UG/ML
same,MIC,[28]; pre-incubation in mouse serum,0.12 UG/ML
same,MIC,[28]; pre-incubation in water,0.12 UG/ML
same,MIC,[29]; pre-incubation in mouse serum,0.50 UG/ML
same,MIC,[29]; pre-incubation in water,1 UG/ML
same,MIC,[30]; pre-incubation in mouse serum,0.50 UG/ML
same,MIC,[30]; pre-incubation in water,0.50 UG/ML
same,ED50 Staph Smith SIV,[31]; single intravenous dose (SIV),>2 mg/kg
same,ED50 Staph Smith SOD,[31]; single oral dose (SOD),>32 mg/kg
same,MIC,[32]; pre-incubation in mouse serum,0.25 UG/ML
same,MIC,[32]; pre-incubation in water,0.50 UG/ML
same,MIC,[33]; pre-incubation in mouse serum,0.50 UG/ML
same,MIC,[33]; pre-incubation in water,2 UG/ML
same,MIC,[34]; pre-incubation in mouse serum,0.12 UG/ML
same,MIC,[34]; pre-incubation in water,0.12 UG/ML
same,MIC,[35]; pre-incubation in mouse serum,0.50 UG/ML
same,MIC,[35]; pre-incubation in water,1 UG/ML
same,MIC,[36]; pre-incubation in mouse serum,8 UG/ML
same,MIC,[36]; pre-incubation in water,64 UG/ML
same,MIC,[37]; pre-incubation in mouse serum,2 UG/ML
same,MIC,[37]; pre-incubation in water,8 UG/ML
same,MIC,[38]; pre-incubation in mouse serum,0.50 UG/ML
same,MIC,[38]; pre-incubation in water,1 UG/ML
same,MIC,[39]; pre-incubation in mouse serum,1 UG/ML
same,MIC,[39]; pre-incubation in water,2 UG/ML
same,MIC,[40]; pre-incubation in mouse serum,0.50 UG/ML
same,MIC,[40]; pre-incubation in water,2 UG/ML
same,MIC,[41]; pre-incubation in mouse serum,0.50 UG/ML
same,MIC,[41]; pre-incubation in water,2 UG/ML
same,"Range of MIC, E. coli (Mouse Serum)","[42]; Mouse Serum, Table 1",0.5 to 2 µg/mL
same,"Range of MIC, E. coli (Water)","[42]; Water, Table 1",0.5 to 4 µg/mL
same,"Range of MIC, Staph (Mouse Serum)","[43]; Mouse Serum, including MRSA, Table 1",0.25 to 2 µg/mL
same,"Range of MIC, Staph (Water)","[43]; Water, including MRSA, Table 1",1 to 8 µg/mL
"CCCN(CC(=O)Nc1cc(N(C)C)c2c(c1O)C(=O)C1=C(O)[C@]3(O)C(=O)C(C(N)=O)=C(O)[C@@H](N(C)C)[C@@H]3C[C@@H]1C2)C(=O)OCOC(=O)CC(C)(C)C [Example 35, ({[(2-{[(5aR,6aS,7S,10aS)-9-(aminocarbonyl)-4,7-bis(dimethylamino)-1,8,10a,11-tetrahydroxy-10,12-dioxo-5,5a,6,6a,7,10,10a,12-octahydrotetracen-2-yl]amino}-2-oxoethyl)(propyl)amino]carbonyl}oxy)methyl 3,3-dimethylbutanoate]",MIC,[44],4 µg/mL
same,ED50,"[31]; Staphylococcus aureus, in Mus musculus, iv, read-out: ED50 SIV (Staph aureus Smith)",0.43 mg/kg
same,ED50,"[31]; Staphylococcus aureus, in Mus musculus, po, read-out: ED50 SOD (Staph aureus Smith)",3.5 mg/kg
same,ED50,"[31]; Staphylococcus aureus, in Mus musculus, po, read-out: ED50 Staph Smith SOD",3.5 mg/kg
same,ED50,"[31]; iv, read-out: ED50 Staph Smith SIV",0.43 mg/kg
same,MIC,"[42]; 20 h, read-out: Range of MIC, E. coli (Mouse Serum)",4 to 8 µg/mL
same,MIC,"[42]; read-out: Range of MIC, E. coli (Water)",8 to 64 µg/mL
same,MIC,"[42]; read-out: Range of MIC, E. coli (mouse serum)",4 to 8 µg/mL
same,MIC,"[42]; read-out: Range of MIC, E. coli (water)",8 to 64 µg/mL
same,MIC,"[43]; read-out: Range of MIC, Staph (Mouse Serum)",2 to 4 µg/mL
same,MIC,"[43]; read-out: Range of MIC, Staph (Water)",2 to 4 µg/mL
same,MIC,"[43]; read-out: Range of MIC, Staph. (mouse serum)",2 to 4 µg/mL
same,MIC,"[43]; read-out: Range of MIC, Staph. (water)",2 to 4 µg/mL
